Like-named read-outs stand apart in the source and are kept apart here.
How the values were obtained:
[1] = test system: WT (wild-type HIV virus; recombinant NL4-3 virus); assay: microbe, parasite or virus in culture; assay type: cell-based, HIV-1
Procedure: (§1) MT-2 cells and 293T cells were obtained from the NIH AIDS Research and Reference Reagent Program. MT-2 cells were propagated in RPMI 1640 media supplemented with 10% heat-inactivated fetal bovine serum, […]. The 293T cells were propagated in DMEM media supplemented with 10% heat-inactivated fetal bovine serum (FBS), 100 units/mL penicillin G and 100 μg/mL streptomycin. […] A recombinant NL4-3 virus, in which a section of the nef gene from NL4-3 was replaced with the Renilla luciferase gene, was used as a reference virus. In addition, residue Gag P373 was converted to P373S. […] Transfections were performed in 293T cells using LipofectAMINE PLUS from Invitrogen (Carlsbad, Calif.), according to manufacturer's instruction. The virus was titered in MT-2 cells using luciferase enzyme activity as a marker. Luciferase was quantitated using the Dual Luciferase kit from Promega (Madison, Wis.), with modifications to the manufacturer's protocol. The diluted Passive Lysis solution was pre-mixed with the re-suspended Luciferase Assay Reagent and the re-suspended Stop & Glo Substrate (2:1:1 ratio). Fifty (50) μL of the mixture was added to each aspirated well on assay plates and luciferase activity was measured immediately on a Wallac TriLux (Perkin-Elmer). Antiviral activities of inhibitors toward the recombinant virus were quantified by measuring luciferase activity in cells infected for 4-5 days with NLRluc recombinants in the presence serial dilutions of the inhibitor.
WT refers to wild-type HIV virus. […]

[2] = test system: HIV-1 NL4-3 gag A364V virus; assay: microbe, parasite or virus in culture; assay type: cell-based
Procedure: as §1
Both recombinant viruses were used as described above in the HIV cell culture assay for the NL4-3 virus.

[3] = Human immunodeficiency virus 1, NL43, MT2, read-out: WT (EC50, uM), Table 1 regular screen, class symbol
[4] = Human immunodeficiency virus 1, NL43, MT2, read-out: A364V (EC50, uM), Table 1 regular screen, class symbol
[5] = Human immunodeficiency virus 1, NL43, MT2, read-out: WT (EC50, uM), Table 1 regular screen, MT-2 cells, luciferase readout
[6] = Human immunodeficiency virus 1, NL43, MT2, read-out: A364V (EC50, uM), Table 1 regular screen, MT-2 cells, luciferase readout

Structure (SMILES) | EC50 [1, 3] [µM] | EC50 [2, 4] [µM] | EC50 [1, 5] [µM] | EC50 [2, 6] [µM]
C=C(C)[C@@H]1CC[C@]2(NCCCC(C)(C)O)CC[C@]3(C)[C@H](CC[C@@H]4[C@@]5(C)CC=C(C6=CC[C@](CF)(C(=O)O)CC6)C(C)(C)[C@@H]5CC[C@]43C)[C@@H]12 [Example 2-3, (S)-1-(fluoromethyl)-4-((1R,3aS,5aR,5bR,7aR,11aS,11bR,13aR,13bR)-3a-((4-hydroxy-4-methylpentyl)amino)-5a,5b,8,8,11a-pentamethyl-1-(prop-1-en-2-yl)-2,3,3a,4,5,5a,5b,6,7,7a,8,11,11a,11b,12,13,13a,13b-octadecahydro-1H-cyclopenta[a]chrysen-9-yl)cyclohex-3-enecarboxylic acid] | < 0.05 | > 0.05 |  | 
C=C(C)[C@@H]1CC[C@]2(NCCN3CCN(C(C)=O)C(C)(C)C3=O)CC[C@]3(C)[C@H](CC[C@@H]4[C@@]5(C)CC=C(C6=CC[C@](CF)(C(=O)O)CC6)C(C)(C)[C@@H]5CC[C@]43C)[C@@H]12 [Example 2-27, (S)-4-((1R,3aS,5aR,5bR,7aR,11aS,11bR,13aR,13bR)-3a-((2-(4-acetyl-3,3-dimethyl-2-oxopiperazin-1-yl)ethyl)amino)-5a,5b, 8,8,11a-pentamethyl-1-(prop-1-en-2-yl)-2,3,3a,4,5,5a,5b,6,7,7a,8,11,11a,11b,12,13,13a,13b-octadecahydro-1H-cyclopenta[a]chrysen-9-yl)-1-(fluoromethyl)cyclohex-3-enecarboxylic acid] |  |  | 0.00577 | 0.0201
CC(C)[C@@H]1CC[C@]2(NCCN3CCS(=O)(=O)CC3)CC[C@]3(C)[C@H](CC[C@@H]4[C@@]5(C)CC=C(C6=CC[C@@](CF)(C(=O)O)CC6)C(C)(C)[C@@H]5CC[C@]43C)[C@@H]12 [Example 22, (R)-4-((1S,3aS,5aR,5bR,7aR,11aS,11bR,13aR,13bR)-3a-((2-(1,1-dioxidothiomorpholino)ethyl)amino)-1-isopropyl-5a,5b, 8,8,11a-pentamethyl-2,3,3a,4,5,5a,5b,6,7,7a,8,11,11a,11b,12,13,13a,13b-octadecahydro-1H-cyclopenta[a]chrysen-9-yl)-1-(fluoromethyl)cyclohex-3-enecarboxylic acid] |  |  | 0.00134 | 0.0513
C=C(C)[C@@H]1CC[C@]2(NCC(=O)N3CCS(=O)(=O)CC3)CC[C@]3(C)[C@H](CC[C@@H]4[C@@]5(C)CC=C(C6=CC[C@](CF)(C(=O)O)CC6)C(C)(C)[C@@H]5CC[C@]43C)[C@@H]12 [Example 29, (S)-4-((1R,3aS,5aR,5bR,7aR,11aS,11bR,13aR,13bR)-3a-((2-(1,1-dioxidothiomorpholino)-2-oxoethyl)amino)-5a,5b,8,8,11a-pentamethyl-1-(prop-1-en-2-yl)-2,3,3a,4,5,5a,5b,6,7,7a,8,11,11a,11b,12,13,13a,13b-octadecahydro-1H-cyclopenta[a]chrysen-9-yl)-1-(fluoromethyl)cyclohex-3-enecarboxylic acid] | < 0.05 | > 0.05 |  | 
C=C(C)[C@@H]1CC[C@]2(NCCS(=O)(=O)CCN3CCS(=O)(=O)CC3)CC[C@]3(C)[C@H](CC[C@@H]4[C@@]5(C)CC=C(C6=CC[C@](CF)(C(=O)O)CC6)C(C)(C)[C@@H]5CC[C@]43C)[C@@H]12 [Example 43, (S)-4-((1R,3aS,5aR,5bR,7aR,11aS,11bR,13aR,13bR)-3a-((2-((2-(1,1-dioxidothiomorpholino)ethyl)sulfonyl)ethyl)amino)-5a,5b,8,8,11a-pentamethyl-1-(prop-1-en-2-yl)-2,3,3a,4,5,5a,5b,6,7,7a,8,11,11a,11b,12,13,13a,13b-octadecahydro-1H-cyclopenta[a]chrysen-9-yl)-1-(fluoromethyl)cyclohex-3-enecarboxylic acid] |  |  | 0.00335 | 0.585
C=C(C)[C@@H]1CC[C@]2(NCCN3CCSCC3C(=O)O)CC[C@]3(C)[C@H](CC[C@@H]4[C@@]5(C)CC=C(C6=CC[C@@](CF)(C(=O)O)CC6)C(C)(C)[C@@H]5CC[C@]43C)[C@@H]12 (stereo partly drawn) [Example 18, 4-(2-(((1R,3aS,5aR,5bR,7aR,11aS,11bR,13aR,13bR)-9-((R)-4-carboxy-4-(fluoromethyl)cyclohex-1-en-1-yl)-5a,5b,8,8,11a-pentamethyl-1-(prop-1-en-2-yl)-2,3,3a,4,5,5a,5b,6,7,7a,8,11,11a,11b,12,13,13a,13b-octadecahydro-1H-cyclopenta[a]chrysen-3a-yl)amino)ethyl)thiomorpholine-3-carboxylic acid] |  |  | 0.0243 | 3
C=C(C)[C@@H]1CC[C@]2(NCCC(C)(C)O)CC[C@]3(C)[C@H](CC[C@@H]4[C@@]5(C)CC=C(C6=CC[C@](CF)(C(=O)O)CC6)C(C)(C)[C@@H]5CC[C@]43C)[C@@H]12 [Example 2-1, (S)-1-(fluoromethyl)-4-((1R,3aS,5aR,5bR,7aR,11aS,11bR,13aR,13bR)-3a-((3-hydroxy-3-methylbutyl)amino)-5a,5b,8,8,11a-pentamethyl-1-(prop-1-en-2-yl)-2,3,3a,4,5,5a,5b,6,7,7a,8,11,11a,11b,12,13,13a,13b-octadecahydro-1H-cyclopenta[a]chrysen-9-yl)cyclohex-3-enecarboxylic acid] | < 0.05 | > 0.05 |  | 
C=C(C)[C@@H]1CC[C@]2(CNCC(C)(C)N3CCS(=O)(=O)CC3)CC[C@]3(C)[C@H](CC[C@@H]4[C@@]5(C)CC=C(C6=CC[C@](CF)(C(=O)O)CC6)C(C)(C)[C@@H]5CC[C@]43C)[C@@H]12 [Example 10, (S)-4-((1R,3aS,5aR,5bR,7aR,11aS,11bR,13aR,13bR)-3a-(((2-(1,1-dioxidothiomorpholino)-2-methylpropyl)amino)methyl)-5a,5b, 8,8,11a-pentamethyl-1-(prop-1-en-2-yl)-2,3,3a,4,5,5a,5b,6,7,7a,8,11,11a,11b,12,13,13a,13b-octadecahydro-1H-cyclopenta[a]chrysen-9-yl)-1-(fluoromethyl)cyclohex-3-enecarboxylic acid] | < 0.05 | < 0.05 |  | 
C=C(C)[C@@H]1CC[C@]2(NCC(=O)N3CCC(S(C)(=O)=O)CC3)CC[C@]3(C)[C@H](CC[C@@H]4[C@@]5(C)CC=C(C6=CC[C@](CF)(C(=O)O)CC6)C(C)(C)[C@@H]5CC[C@]43C)[C@@H]12 [Example 31, (S)-1-(fluoromethyl)-4-((1R,3aS,5aR,5bR,7aR,11aS,11bR,13aR,13bR)-5a,5b, 8,8,11a-pentamethyl-3a-((2-(4-(methylsulfonyl)piperidin-1-yl)-2-oxoethyl)amino)-1-(prop-1-en-2-yl)-2,3,3a,4,5,5a,5b,6,7,7a,8,11,11a,11b,12,13,13a,13b-octadecahydro-1H-cyclopenta[a]chrysen-9-yl)cyclohex-3-enecarboxylic acid] | < 0.05 | > 0.05 |  | 
C=C(C)[C@@H]1CC[C@]2(C(=O)NCCN3CCS(=O)(=O)CC3)CC[C@]3(C)[C@H](CC[C@@H]4[C@@]5(C)CC=C(C6=CC[C@@](CF)(C(=O)O)CC6)C(C)(C)[C@@H]5CC[C@]43C)[C@@H]12 [Example 38, (R)-4-((1R,3aS,5aR,5bR,7aR,11aS,11bR,13aR,13bR)-3a-((2-(1,1-dioxidothiomorpholino)ethyl)carbamoyl)-5a,5b,8,8,11a-pentamethyl-1-(prop-1-en-2-yl)-2,3,3a,4,5,5a,5b,6,7,7a,8,11,11a,11b,12,13,13a,13b-octadecahydro-1H-cyclopenta[a]chrysen-9-yl)-1-(fluoromethyl)cyclohex-3-enecarboxylic acid] | < 0.05 | < 0.05 |  | 
C=C(C)[C@@H]1CC[C@]2(NCCC3(O)CCN(S(C)(=O)=O)CC3)CC[C@]3(C)[C@H](CC[C@@H]4[C@@]5(C)CC=C(C6=CC[C@](CF)(C(=O)O)CC6)C(C)(C)[C@@H]5CC[C@]43C)[C@@H]12 [Example 2-14, (S)-1-(fluoromethyl)-4-((1R,3aS,5aR,5bR,7aR,11aS,11bR,13aR,13bR)-3a-((2-(4-hydroxy-1-(methylsulfonyl)piperidin-4-yl)ethyl)amino)-5a,5b,8,8,11a-pentamethyl-1-(prop-1-en-2-yl)-2,3,3a,4,5,5a,5b,6,7,7a,8,11,11a,11b,12,13,13a,13b-octadecahydro-1H-cyclopenta[a]chrysen-9-yl)cyclohex-3-enecarboxylic acid] |  |  | 0.00256 | 0.0431
